Measurements published in patent US20250339817A1, “A PROCESS FOR THE NITRIC OXIDE ABATEMENT THROUGH BIOLOGICAL TREATMENTS” (FUNDACIÓ EURECAT, priority 2022, published 2025).

Assays:
Assay type in all cases: physicochemical
[1] = Mass transfer gas-to-liquid batch tests in a three-phase system (CO2/NO/Aqueous/NAP), CO2; details: gas mixture, phosphate buffer
Experimental: (§1) Mass transfer gas-to-liquid batch tests with a mixture of gases with CO2 and NO were performed to determine the mass transfer rate and selectivity of these gases in the presence of NAP and aqueous phase. The results were compared with respect to blank (water or phosphate buffer at pH 8 without NAP). The initial samples were filled with CO2 to reach a peak transmittance area between 8010 and 8940 cm^−1 and NO to reach a peak of transmittance area between 11 and 14 cm^−1, then 10 mL of each NAP (HTX, HNO and HEX) was injected. Tests were performed with a phosphate buffer at pH 8 at a 10% v/v ratio of NAP/aqueous phase. All experiments were performed in 500 mL amber glass bottles previously prepared in a glove box to maintain an inert atmosphere and carried out per at least triplicate at a temperature of 25° C. and 100 rpm orbital shaking in an incubator. CO2 and NO in the gas phase were measured at the beginning and at the end of the test. Also, the liquid phase was monitored for pH, nitrite (NO2^−) and nitrate (NO3^−) at the end of each test.
(§2) NO and CO2 peak area in the gas phase were measured by Fourier Transform Infrared Spectroscopy (FTIR). In these experiments the peak area was analyzed and not the concentration. Therefore, the performance of the tests will be given in percent (%) area reduction, which is defined in Eq 1. Nitrogen compounds were analyzed in liquid samples after being centrifuged at 15,000 rpm and filtration (0.22 μm) to separate the NAP found in the sample. NO2^− and NO3^− were measured using Hach Lange kits (LCK342 and LCK 339, respectively, Hach Lange, Germany).
(§3) The initial area (Areainitial) is a quantitative measure of the transmittance at certain given wavelengths (NO=1730-1930 cm^−1; CO2=2230-2400 cm^−1) and correlates the presence of the compound in the sample at time=0 h. The final area (Areafinal) is a quantitative measure of the transmittance at the given wavelengths (NO=between 1730-1930 cm^−1; CO2=2230-2400 cm-1) and correlates with the presence of the compound in the sample at time=1 h.

[2] = Mass transfer gas-to-liquid batch tests in a two-phase system with a mixture of gases (CO2/NO/NAP), CO2; details: 1 h
Experimental: (§4) Mass transfer gas-to-liquid batch tests with a mixture of gases with CO2 and NO were performed to determine the mass transfer rate and selectivity of these gases in the presence of NAP. The initial samples were filled with CO2 to reach a peak transmittance area between 6388 and 8018 cm^−1 and NO to reach a peak of transmittance area between 73 and 84 cm^−1, then 10 mL of each NAP (HTX, HNO and HEX) was injected. CO2 and NO in the gas phase were measured at the beginning and at the end of the test. All experiments were carried out per at least triplicate at a temperature of 25° C. and 100 rpm orbital shaking in an incubator. These tests had also a blank in which the NAP phase was replaced by phosphate buffer (pH=8).
as §2, §3

[3] = Mass transfer gas-to-liquid tests in a two-phase system (CO2/NAP); details: pure CO2 (without gas mixture), 1 h
Experimental: Mass transfer gas-to-liquid batch tests were performed to determine the mass transfer rate of CO2 in the presence of NAP. The initial samples were filled with CO2 to reach a peak transmittance area between 6200 and 7100 cm-1, then 10 mL of each NAP (HTX, HNO and HEX) was injected. […] CO2 in the gas phase were measured at the beginning and at the end of the test. All experiments were performed in 500 mL amber glass bottles previously prepared in a glove box to maintain an inert atmosphere and carried out per at least triplicate at a temperature of 25° C. and 100 rpm orbital shaking in an incubator.
as §2, §3

[4] = Nitric oxide (NO) absorption with pure NAPs (batch tests); details: pure NAP, first screening test, 1 hour, 25° C., initial NO 4500-5100 ppmv
Experimental: Batch tests with pure NAPs were performed in 120 mL glass amber vials with an initial concentration of NO between 4500 and 5100 ppmv and different amounts of NAPs (DES, SO, HTX, HNO and HEX). For this experiment each NAP was added to a vial containing NO. Each NAP was tested alone. The results were compared with respect to a blank containing deionized water instead of NAP. All experiments were carried out at a temperature of 25° C. and agitation of 100 rpm in an incubator, five replicates were made per point. Gas phase analysis (NO and NO2) was performed at the beginning of the experiment and at the end (1 hour).
NO and NO2 concentrations in the gas phase were measured by Fourier Transform Infrared Spectroscopy (FTIR) from an aliquot of 1 mL (PerkinElmer Inc., Spain). The NO removal efficiency in the tests was calculated from the difference in NO concentration from the beginning and end of each test. Nitrogen compounds and chemical oxygen demand (COD) were analyzed in liquid samples after centrifuged at 15,000 rpm and filtration (0.22 μm) to separate the NAP found in the sample. Nitrite and nitrate were measured using Hach Lange kits (LCK342 and LCK 339, respectively, Hach Lange, Germany). COD was measured using Hach Lange kits (LCK114 and LCK 214, respectively, Hach Lange, Germany).

[5] = Mass transfer gas-to-liquid batch tests in a three-phase system (CO2/NO/Aqueous/NAP), NO; design: concentration or dose not given beside the values; details: phosphate buffer
Experimental: as §1, §2, §3

[6] = Mass transfer gas-to-liquid batch tests in a two-phase system with a mixture of gases (CO2/NO/NAP), NO; details: 1 h
Experimental: as §4, §2, §3

CCCCCCCCCCCCCCCC [HEX, n-hexadecane]
CO2 peak area difference [1]: 8±2% | CO2 peak area reduction [2]: 15±2% | CO2 peak area reduction [3]: 11±3% | RE NO (NO removal efficiency) [4]: 29.2% | NO percent of area reduction ([5]; with CO2): 28±3% | NO percent of area reduction ([5]; without CO2): 26±5% | NO percent of area reduction [6]: 31±6%

C[SiH](O[Si](C)(C)C)O[Si](C)(C)C [HTX, 1,1,1,3,5,5,5-heptamethyl-trisiloxane]
CO2 peak area difference [1]: 7±2% | CO2 peak area reduction [2]: 97±0.9% | CO2 peak area reduction [3]: 99±0.2% | RE NO (NO removal efficiency) [4]: 49.2% | NO percent of area reduction ([5]; with CO2): 56±7% | NO percent of area reduction ([5]; without CO2): 70±3% | NO percent of area reduction [6]: 62±5%

CC(CC(C)(C)C)CC(C)(C)CC(C)(C)C (centres unmarked) [HNO, 2,2,4,4,6,8,8-heptamethylnonane]
CO2 peak area difference [1]: 3±7% | CO2 peak area reduction [2]: 13±0.3% | CO2 peak area reduction [3]: 18±3% | NO percent of area reduction ([5]; with CO2): 54±4% | NO percent of area reduction ([5]; without CO2): 32±4% | NO percent of area reduction [6]: 21±4%
